From article PMC8201735 (BMC Pharmacology & Toxicology, 2021)
Where “and” joins values, the source holds several entries; their conditions need not be identical. Identical values can stand only once. Like-named read-outs stand apart in the source and are kept apart here.

How the values were obtained:
subjects with T2DM [1] = experiment: Adverse event monitoring, RE co-administered with metformin for 13 days; assay type: in vivo, human; details: for Any AE / Tolerability of co-administration with metformin: 13 days; for Tolerability of co-administration with metformin: RE 500 or 750 mg BID + metformin >=2000 mg/day
Description: The study was comprised of three phases; run-in, randomization, and treatment. […] In treatment phase the patients were considered in two cohorts. […] The adverse events monitoring included recording of any adverse event (AE) and serious adverse event (SAE) reported or observed during the entire study and follow-up period. All the subjects were counseled to inform study staff of any AEs that occurred during the study. Any abnormal laboratory findings (e.g., clinical chemistry, hematology, and urinalysis) or other abnormal assessments (e.g., ECGs, vital signs, physical examination) that were judged by the investigator as clinically significant were recorded as AEs or SAE.

subjects with T2DM [2] = experiment: Ambulatory blood pressure monitoring; assay type: in vivo, human; details: for Decrease in diastolic blood pressure at nighttime, Day 13, compared to placebo (metformin alone) / Decrease in systolic blood pressure at nighttime, Day 13, compared to placebo (metformin alone): stated as magnitude of decrease
Protocol: The ambulatory blood pressure was monitored for […] during inpatient days (beginning Day 1 at 08.00, Day 2 at 08.00 and Day 13 at 08.00). The unit was programmed to take blood pressure readings every 10 min from 08.00 to 10.00, every 20 min from 10.00 to 22.00, and every 30 min from 22.00 to 08.00 the following morning.
(§1) Descriptive statistics were used to summarize baseline demographics, safety data, and pharmacokinetic parameters. Geometric mean and % CVb (between-subject coefficient of variation) were calculated for all pharmacokinetic parameters except tmax. Comparisons of placebo with each active dose of RE were assessed in terms of change from baseline in fasting plasma lactate acid using repeated measures analysis of covariance model. The model included terms for baseline measurement, visit, treatment and visit-by-treatment interaction. The same model was applied to change from baseline in weighted means of day-time, night-time and 0–24 h of blood pressures. Within group treatment comparison was performed using mixed model on log transformed Cmax and AUC (0-last).

[3] = Plasma pharmacokinetics of metformin with and without RE; assay type: in vivo, human; details: RE 500 mg or 750 mg BID with metformin
Protocol: as §1, with “PK analysis was conducted by […] (Chapel Hill, NC, USA), under the direction of Clinical Pharmacokinetics/Modelling and Simulation, GSK using the non-compartmental analysis Model 200 (for extra vascular administration) of WinNonlin Professional Edition version 4.1 (Pharsight Corporation, Mountain View, CA). […] Descriptive” for “Descriptive”, “0-24” for “0–24”

[4] = Plasma pharmacokinetics of remogliflozin etabonate and its metabolites during metformin treatment; assay type: in vivo, human; details: for AUC(0-t) / Cmax / Tmax: human, plasma, oral; for AUC(0-t): read-out: AUC (0-last), geometric mean (%CVb); for Cmax: read-out: Cmax, geometric mean (%CVb); for Tmax: read-out: tmax, median (range)
Protocol: as §1, with “PK analysis was conducted by […] (Chapel Hill, NC, USA), under the direction of Clinical Pharmacokinetics/Modelling and Simulation, GSK using the non-compartmental analysis Model 200 (for extra vascular administration) of WinNonlin Professional Edition version 4.1 (Pharsight Corporation, Mountain View, CA). […] Descriptive” for “Descriptive”, “0-24” for “0–24”

subjects with T2DM [5] = experiment: Oral glucose tolerance test (75 g): weighted mean plasma glucose and insulin; assay type: in vivo, human
Protocol: Oral glucose tolerance testing was performed on Day 1 and Day 13 using a 75 g oral glucose solution. Blood samples for the measurement of insulin and glucose were taken immediately before drug dosing (within 5 min of drug dosing), and at 30 min, 1, 1.5, 2, 3, 4, and 6 h following drug dosing.

Body weight = assay type: in vivo, human; details: for Change from baseline in body weight, Mean (SD): Day 2
Protocol: Body weight measurement was performed at screening and during inpatient Days- 1, 2, 4, 8, 13, and 14.

subjects with T2DM [6] = experiment: Oral glucose tolerance test (75 g): weighted mean plasma glucose and insulin; assay type: in vivo, human; details: Day -1 (baseline)
subjects with T2DM [7] = details: RE 500 mg BID and metformin 500 mg BID for 3 days; cited from earlier work
[8] = parameters: method as in PMID 25934577; details: repeat dosing PK; cited from earlier work
T2DM patients = tested on: T2DM patients; parameters: method as in PMID 32162274; details: T2DM patients on daily metformin therapy (> 1500 mg) over 24 weeks; cited from earlier work
[9] = RE 500 mg BID + metformin, N = 16
[10] = RE 750 mg BID + metformin, N = 17
[11] = 24 h, RE 500 mg BID + metformin, N = 14
[12] = 24 h, RE 750 mg BID + metformin, N = 14
[13] = Daytime (10 am to 8 pm), RE 500 mg BID + metformin
[14] = Daytime (10 am to 8 pm), RE 750 mg BID + metformin
[15] = Nighttime (midnight to 6 am), RE 500 mg BID + metformin
[16] = Nighttime (midnight to 6 am), RE 750 mg BID + metformin
[17] = 500 mg, Day 1, after RE 500 mg BID + metformin, N = 16
[18] = 500 mg, Day 13, after RE 500 mg BID + metformin, N = 15
[19] = 750 mg, Day 1, after RE 750 mg BID + metformin, N = 17
[20] = 750 mg, Day 13, after RE 750 mg BID + metformin, N = 16

CCOC(=O)OC[C@H]1O[C@@H](Oc2nn(C(C)C)c(C)c2Cc2ccc(OC(C)C)cc2)[C@H](O)[C@@H](O)[C@@H]1O [RE, remogliflozin etabonate]
Any AE (subjects with T2DM [1]; RE 500 mg BID + metformin >=2000 mg/day, N = 16): 6 (38%) N(%)
Dizziness (subjects with T2DM [1]; [9]): 1 (6%) N(%)
Nausea (subjects with T2DM [1]; [9]): 1 (6%) N(%)
Thirst (subjects with T2DM [1]; [9]): 0 N(%)
Post-therapy AEs (subjects with T2DM [1]; RE 750 mg + metformin group): no post-therapy AEs
Subjects with hypoglycemic laboratory events (subjects with T2DM [1]; RE 750 mg + metformin group, moderate, resolved with sweets): one
Any AE (subjects with T2DM [1]; RE 750 mg BID + metformin >=2000 mg/day, N = 17): 4 (24%) N(%)
Diarrhoea (subjects with T2DM [1]; [10]): 1 (6%) N(%)
Dizziness (subjects with T2DM [1]; [10]): 1 (6%) N(%)
Dyslipidemia (subjects with T2DM [1]; [10]): 0 N(%)
Nausea (subjects with T2DM [1]; [10]): 1 (6%) N(%)
Supraventricular tachycardia (subjects with T2DM [1]; [10]): 0 N(%)
Urinary tract infection (subjects with T2DM [1]; [10]): 0 N(%)
Vomiting (subjects with T2DM [1]; [10]): 1 (6%) N(%)
Tolerability of co-administration with metformin (subjects with T2DM [1]): generally well tolerated
Tolerability of co-administration with metformin (subjects with T2DM [1]; listed as remogliflozin etabonate): well tolerated
Ambulatory diastolic BP, adjusted mean change from baseline to Day 13 vs. placebo (subjects with T2DM [2]; [11]): −2.0; p = 0.256 mmHg
Ambulatory systolic BP, adjusted mean change from baseline to Day 13 vs. placebo (subjects with T2DM [2]; [11]): −2.8; p = 0.303 mmHg
Ambulatory diastolic BP, adjusted mean change from baseline to Day 13 vs. placebo (subjects with T2DM [2]; [12]): −3.3; p = 0.062 mmHg
Ambulatory systolic BP, adjusted mean change from baseline to Day 13 vs. placebo (subjects with T2DM [2]; [12]): −4.0; p = 0.131 mmHg
Ambulatory diastolic BP, adjusted mean change from baseline to Day 13 vs. placebo (subjects with T2DM [2]; [13]): −1.8; p = 0.461 mmHg
Ambulatory systolic BP, adjusted mean change from baseline to Day 13 vs. placebo (subjects with T2DM [2]; [13]): −3.4; p = 0.291 mmHg
Ambulatory diastolic BP, adjusted mean change from baseline to Day 13 vs. placebo (subjects with T2DM [2]; [14]): −1.3; p = 0.586 mmHg
Ambulatory systolic BP, adjusted mean change from baseline to Day 13 vs. placebo (subjects with T2DM [2]; [14]): −2.4; p = 0.441 mmHg
Ambulatory diastolic BP, adjusted mean change from baseline to Day 13 vs. placebo (subjects with T2DM [2]; [15]): −6.5; p = 0.006 mmHg
Ambulatory systolic BP, adjusted mean change from baseline to Day 13 vs. placebo (subjects with T2DM [2]; [15]): −8.4; p = 0.020 mmHg
Ambulatory diastolic BP, adjusted mean change from baseline to Day 13 vs. placebo (subjects with T2DM [2]; [16]): −4.8; p = 0.043 mmHg
Ambulatory systolic BP, adjusted mean change from baseline to Day 13 vs. placebo (subjects with T2DM [2]; [16]): −7.1; p = 0.047 mmHg
Decrease in diastolic blood pressure at nighttime, Day 13, compared to placebo (metformin alone) (subjects with T2DM [2]; RE 500 mg BID + metformin): 6.5 mmHg
Decrease in systolic blood pressure at nighttime, Day 13, compared to placebo (metformin alone) (subjects with T2DM [2]; RE 500 mg BID + metformin): 8.4 mmHg
Decrease in diastolic blood pressure at nighttime, Day 13, compared to placebo (metformin alone) (subjects with T2DM [2]; RE 750 mg BID + metformin): 4.8 mmHg
Decrease in systolic blood pressure at nighttime, Day 13, compared to placebo (metformin alone) (subjects with T2DM [2]; RE 750 mg BID + metformin): 7.1 mmHg
Effect of RE on the pharmacokinetics of metformin [3]: no effect
AUC(0-last) accumulation ratio Day 13 versus Day 1, point estimate (90% CI) ([4]; RE 500 mg + Metformin): 0.99 (0.857–1.15)
AUC(0-last) accumulation ratio Day 13 versus Day 1, point estimate (90% CI) ([4]; RE 750 mg + Metformin): 1.02 (0.861–1.21)
AUC(0-t) ([4]; 500 mg, Day 1, RE 500 mg BID + metformin, N = 16): 70.9 ng·h/mL
Cmax [4, 17]: 64.8 ng/mL
Tmax [4, 17]: 37.8 min
AUC(0-t) ([4]; 500 mg, Day 13, RE 500 mg BID + metformin, N = 15): 73.5 ng·h/mL
Cmax [4, 18]: 53.3 ng/mL
Tmax [4, 18]: 30 min
AUC(0-t) ([4]; 750 mg, Day 1, RE 750 mg BID + metformin, N = 17): 121 ng·h/mL
Cmax [4, 19]: 137 ng/mL
Tmax [4, 19]: 30 min
AUC(0-t) ([4]; 750 mg, Day 13, RE 750 mg BID + metformin, N = 16): 121 ng·h/mL
Cmax [4, 20]: 101 ng/mL
Tmax [4, 20]: 28.8 min
Weighted mean plasma glucose following OGTT, Mean (SD) (subjects with T2DM [5]; Day 1 (baseline), RE 500 mg + Metformin): 13 mmol/L and 13.03 (1.929) mmol/L
Weighted mean plasma glucose following OGTT, Mean (SD) (subjects with T2DM [5]; Day 1 (baseline), RE 750 mg + Metformin): 11 mmol/L and 11.49 (3.536) mmol/L
Weighted mean plasma glucose following OGTT, Mean (SD) (subjects with T2DM [5]; Day 13, RE 500 mg + Metformin): 9 mmol/L and 9.45 (1.502) mmol/L
Weighted mean plasma insulin following OGTT, Mean (SD) (subjects with T2DM [5]; Day 13, RE 500 mg + Metformin): 142.15 (67.626) pmol/L
Weighted mean plasma glucose following OGTT, Mean (SD) (subjects with T2DM [5]; Day 13, RE 750 mg + Metformin): 8 mmol/L and 8.84 (1.656) mmol/L
Weighted mean plasma insulin following OGTT, Mean (SD) (subjects with T2DM [5]; Day 13, RE 750 mg + Metformin): 171.57 (74.178) pmol/L
Weighted mean plasma glucose, change from baseline, Mean (SD) (subjects with T2DM [5]; RE 500 mg + Metformin): −3.50 (2.012) mmol/L
Weighted mean plasma insulin, change from baseline, Mean (SD) (subjects with T2DM [5]; RE 500 mg + Metformin): −44.80 (52.746) pmol/L
Weighted mean plasma glucose, change from baseline, Mean (SD) (subjects with T2DM [5]; RE 750 mg + Metformin): −2.77 (2.262) mmol/L
Weighted mean plasma insulin, change from baseline, Mean (SD) (subjects with T2DM [5]; RE 750 mg + Metformin): −18.95 (47.360) pmol/L
Change from baseline in body weight, Mean (SD) (Body weight; RE 500 mg + Metformin): −1.03 (0.994) kg
Change from baseline in body weight, Mean (SD) (Body weight; RE 750 mg + Metformin): −1.04 (1.210) kg
Additional body weight lost in the RE groups compared to metformin alone (Body weight; by Day 14, RE 500 or 750 mg BID + metformin vs placebo + metformin): ~1 kg
Weighted mean plasma insulin following OGTT, Mean (SD) (subjects with T2DM [6]; RE 500 mg + Metformin): 190.96 (100.420) pmol/L
Weighted mean plasma insulin following OGTT, Mean (SD) (subjects with T2DM [6]; RE 750 mg + Metformin): 191.52 (83.045) pmol/L
Effect of RE on the steady-state plasma profiles of metformin (subjects with T2DM [7]): no effect
Tolerability of concomitant administration (subjects with T2DM [7]): well tolerated
Increase in AUC on repeat dosing [8]: 10%
Increase in t1/2 on repeat dosing [8]: 10%
Glycemic efficacy (T2DM patients): comparable to dapagliflozin
